Data published in the NIST ThermoML archive (doi:10.1016/j.fluid.2016.02.009).
± gives the expanded uncertainty stated by the source.

Settings: Liquid, Vibrating tube method

CCCCOC [butyl methyl ether]
Settings	mass density [kg/m3]
283.15 K, 100 kPa	755.88 ± 0.3
283.15 K, 5000 kPa	760.82 ± 0.33
283.15 K, 10000 kPa	765.42 ± 0.36
283.15 K, 15000 kPa	769.77 ± 0.39
283.15 K, 20000 kPa	773.91 ± 0.43
283.15 K, 25000 kPa	777.86 ± 0.46
283.15 K, 30000 kPa	781.65 ± 0.49
283.15 K, 35000 kPa	785.29 ± 0.53
283.15 K, 40000 kPa	788.8 ± 0.56
283.15 K, 45000 kPa	792.18 ± 0.6
283.15 K, 50000 kPa	795.45 ± 0.63
283.15 K, 55000 kPa	798.61 ± 0.66
283.15 K, 60000 kPa	801.68 ± 0.7
283.15 K, 65000 kPa	804.67 ± 0.73
288.15 K, 100 kPa	750.88 ± 0.3
288.15 K, 5000 kPa	756.01 ± 0.33
288.15 K, 10000 kPa	760.78 ± 0.36
288.15 K, 15000 kPa	765.26 ± 0.4
288.15 K, 20000 kPa	769.53 ± 0.43
288.15 K, 25000 kPa	773.58 ± 0.46
288.15 K, 30000 kPa	777.48 ± 0.5
288.15 K, 35000 kPa	781.19 ± 0.53
288.15 K, 40000 kPa	784.79 ± 0.57
288.15 K, 45000 kPa	788.24 ± 0.61
288.15 K, 50000 kPa	791.57 ± 0.64
288.15 K, 55000 kPa	794.8 ± 0.67
288.15 K, 60000 kPa	797.94 ± 0.7
288.15 K, 65000 kPa	800.98 ± 0.74
293.15 K, 100 kPa	745.85 ± 0.3
293.15 K, 5000 kPa	751.18 ± 0.33
293.15 K, 10000 kPa	756.08 ± 0.36
293.15 K, 15000 kPa	760.71 ± 0.4
293.15 K, 20000 kPa	765.09 ± 0.43
293.15 K, 25000 kPa	769.27 ± 0.47
293.15 K, 30000 kPa	773.26 ± 0.5
293.15 K, 35000 kPa	777.09 ± 0.54
293.15 K, 40000 kPa	780.75 ± 0.58
293.15 K, 45000 kPa	784.3 ± 0.61
293.15 K, 50000 kPa	787.7 ± 0.65
293.15 K, 55000 kPa	791 ± 0.68
293.15 K, 60000 kPa	794.21 ± 0.71
293.15 K, 65000 kPa	797.33 ± 0.75
298.15 K, 100 kPa	740.78 ± 0.3
298.15 K, 5000 kPa	746.29 ± 0.33
298.15 K, 10000 kPa	751.36 ± 0.37
298.15 K, 15000 kPa	756.15 ± 0.4
298.15 K, 20000 kPa	760.68 ± 0.44
298.15 K, 25000 kPa	764.97 ± 0.47
298.15 K, 30000 kPa	769.08 ± 0.51
298.15 K, 35000 kPa	772.99 ± 0.55
298.15 K, 40000 kPa	776.76 ± 0.58
298.15 K, 45000 kPa	780.38 ± 0.62
298.15 K, 50000 kPa	783.87 ± 0.65
298.15 K, 55000 kPa	787.24 ± 0.69
298.15 K, 60000 kPa	790.51 ± 0.72
298.15 K, 65000 kPa	793.65 ± 0.76
303.15 K, 100 kPa	735.68 ± 0.3
303.15 K, 5000 kPa	741.39 ± 0.33
303.15 K, 10000 kPa	746.66 ± 0.37
303.15 K, 15000 kPa	751.6 ± 0.4
303.15 K, 20000 kPa	756.25 ± 0.44
303.15 K, 25000 kPa	760.68 ± 0.47
303.15 K, 30000 kPa	764.89 ± 0.51
303.15 K, 35000 kPa	768.9 ± 0.55
303.15 K, 40000 kPa	772.76 ± 0.59
303.15 K, 45000 kPa	776.46 ± 0.63
303.15 K, 50000 kPa	780.03 ± 0.66
303.15 K, 55000 kPa	783.46 ± 0.7
303.15 K, 60000 kPa	786.77 ± 0.73
303.15 K, 65000 kPa	790 ± 0.76
308.15 K, 100 kPa	730.53 ± 0.3
308.15 K, 5000 kPa	736.43 ± 0.33
308.15 K, 10000 kPa	741.88 ± 0.37
308.15 K, 15000 kPa	746.98 ± 0.41
308.15 K, 20000 kPa	751.8 ± 0.44
308.15 K, 25000 kPa	756.35 ± 0.48
308.15 K, 30000 kPa	760.67 ± 0.52
308.15 K, 35000 kPa	764.79 ± 0.56
308.15 K, 40000 kPa	768.74 ± 0.6
308.15 K, 45000 kPa	772.53 ± 0.63
308.15 K, 50000 kPa	776.18 ± 0.67
308.15 K, 55000 kPa	779.69 ± 0.71
308.15 K, 60000 kPa	783.07 ± 0.74
308.15 K, 65000 kPa	786.36 ± 0.77
313.15 K, 100 kPa	725.34 ± 0.3
313.15 K, 5000 kPa	731.47 ± 0.33
313.15 K, 10000 kPa	737.11 ± 0.37
313.15 K, 15000 kPa	742.4 ± 0.41
313.15 K, 20000 kPa	747.36 ± 0.45
313.15 K, 25000 kPa	752.04 ± 0.48
313.15 K, 30000 kPa	756.48 ± 0.52
313.15 K, 35000 kPa	760.7 ± 0.56
313.15 K, 40000 kPa	764.74 ± 0.6
313.15 K, 45000 kPa	768.63 ± 0.64
313.15 K, 50000 kPa	772.34 ± 0.68
313.15 K, 55000 kPa	775.93 ± 0.71
313.15 K, 60000 kPa	779.39 ± 0.75
313.15 K, 65000 kPa	782.73 ± 0.78
318.15 K, 100 kPa	720.1 ± 0.3
318.15 K, 5000 kPa	726.46 ± 0.34
318.15 K, 10000 kPa	732.32 ± 0.37
318.15 K, 15000 kPa	737.77 ± 0.41
318.15 K, 20000 kPa	742.89 ± 0.45
318.15 K, 25000 kPa	747.69 ± 0.48
318.15 K, 30000 kPa	752.27 ± 0.53
318.15 K, 35000 kPa	756.62 ± 0.57
318.15 K, 40000 kPa	760.76 ± 0.61
318.15 K, 45000 kPa	764.73 ± 0.65
318.15 K, 50000 kPa	768.51 ± 0.69
318.15 K, 55000 kPa	772.16 ± 0.72
318.15 K, 60000 kPa	775.71 ± 0.76
318.15 K, 65000 kPa	779.13 ± 0.79
323.15 K, 100 kPa	714.8 ± 0.3
323.15 K, 5000 kPa	721.41 ± 0.34
323.15 K, 10000 kPa	727.49 ± 0.38
323.15 K, 15000 kPa	733.12 ± 0.41
323.15 K, 20000 kPa	738.42 ± 0.45
323.15 K, 25000 kPa	743.37 ± 0.49
323.15 K, 30000 kPa	748.07 ± 0.53
323.15 K, 35000 kPa	752.53 ± 0.57
323.15 K, 40000 kPa	756.76 ± 0.62
323.15 K, 45000 kPa	760.83 ± 0.66
323.15 K, 50000 kPa	764.7 ± 0.69
323.15 K, 55000 kPa	768.43 ± 0.73
323.15 K, 60000 kPa	772.05 ± 0.77
323.15 K, 65000 kPa	775.54 ± 0.8
328.15 K, 100 kPa	709.45 ± 0.3
328.15 K, 5000 kPa	716.32 ± 0.34
328.15 K, 10000 kPa	722.64 ± 0.38
328.15 K, 15000 kPa	728.5 ± 0.42
328.15 K, 20000 kPa	733.93 ± 0.45
328.15 K, 25000 kPa	739.05 ± 0.49
328.15 K, 30000 kPa	743.83 ± 0.54
328.15 K, 35000 kPa	748.41 ± 0.58
328.15 K, 40000 kPa	752.76 ± 0.62
328.15 K, 45000 kPa	756.92 ± 0.66
328.15 K, 50000 kPa	760.91 ± 0.7
328.15 K, 55000 kPa	764.72 ± 0.74
328.15 K, 60000 kPa	768.39 ± 0.78
328.15 K, 65000 kPa	771.91 ± 0.81
333.15 K, 100 kPa	704.04 ± 0.3
333.15 K, 5000 kPa	711.19 ± 0.34
333.15 K, 10000 kPa	717.74 ± 0.38
333.15 K, 15000 kPa	723.77 ± 0.42
333.15 K, 20000 kPa	729.38 ± 0.46
333.15 K, 25000 kPa	734.64 ± 0.5
333.15 K, 30000 kPa	739.61 ± 0.54
333.15 K, 35000 kPa	744.31 ± 0.59
333.15 K, 40000 kPa	748.78 ± 0.63
333.15 K, 45000 kPa	753.01 ± 0.67
333.15 K, 50000 kPa	757.06 ± 0.71
333.15 K, 55000 kPa	760.97 ± 0.75
333.15 K, 60000 kPa	764.71 ± 0.78
333.15 K, 65000 kPa	768.34 ± 0.82
